# From patent US20070009544A1, “Anti-allergic complex molecules” (priority 1999, published 2007)
# “Also recorded” adds a separate entry of the source. Marks after values point to notes of the source that are not given here. Numbered stars: 1 amine (or outer) side, 2 acyl side, 3 side chain; on linkers, the order of the positions; unused ones are H or OH. Ends that are not written are not given here. Peptide text beside a SMILES is read from it. Suc = O=C(CCC(=O)[*:2])[*:1]
# Tests used:
# mice = test: IgE-independent mouse conjunctivitis induced by compound 48/80, clinical score; format: in vivo; design: scale not given here
# Method: A murine model was chosen as an in vivo model of IgE-independent human conjunctivitis, induced by a basic secretagogue.
# Six groups of mice were topically treated as described in Table 19. The first application was installed 4 times (24 hours, 21 hours, 18 hours and 30 minutes) prior to the second application.
# Clinical evaluation of allergic conjunctivitis was conducted in a blind fashion by determining the extent and intensity of lid edema, chemosis, erythema and tearing.
# [1] = test system: abdominal skin of C.R rats; test: Rat skin test: intradermal injection of peptide, then intradermal compound 48/80 or vehicle, wheal area; format: in vivo; settings: for Mean wheal size, compound 48/80-induced cutaneous reaction: Fenistil Gel 100 mg t.a., Cromoglycate 20 mg/ml i.d., Peptide 2 10 mg/ml i.d.
# Method: (§1) The hair of the abdominal area of C.R rats was carefully removed with an electric clipper and a depilatory cream. In each animal the abdominal area was divided to six equal zones that were marked by pen. Each zone was either subjected to peptide treatment or served as a control. In the first set of experiments, the peptide was topically applied as follows: 36 μl of peptide solution at the indicated concentration (dissolved in 72% DMSO in saline) was applied on desired abdominal area. In the second set of experiments, the peptide was injected intradermally as follows: 20 μl of peptide solution at different concentrations (dissolved in 10% DMSO in saline) was injected intradermally to an indicated abdominal area using a 27-gauge sterile needle.
# (§2) Skin tests were performed 0.5, 1 or 2 hours following application of the peptide. Skin tests were performed by injecting intradermally 20 μl of the allergen (0.1 mg/ml compound 48/80 dissolved in saline) or saline alone, into the center of each marked area on the abdominal skin using a 27-gauge sterile needle. The allergic response was monitored by outlining with a marker the wheals which developed in response to allergen or saline treatment.
# (§3) To quantitate the skin test results, the marker signs were transferred onto paper with scotch tape. The areas of the wheals were outlined and calculated by a computerized planimeter (Hewlett-Packard), as previously described (Sussman et al., 1982).
# Tables 10-16 presents the mean areas of the wheals, which developed in response to intradermal injection of each of the tested peptides, followed by either compound 48/80 or DDW injection applied after 0.5 or 1 hour. Two doses were tested for each peptide-20 and 200 μg (injection of 20 μl from a stock solution of 1 mg/ml or 10 mg/m respectively).
# Skin tests on rats using compound 48/80 as the allergen assessed the ability of the peptides of the present invention to block allergic cutaneous reactions. The abdominal skin of the rats was subjected to peptide (indicated concentrations are listed in Tables 17A-17B below) or vehicle treatment (intradermal injection); the allergic response was induced by intradermal injection of compound 48/80 at various times; and the allergic response was quantified by calculating the area of the resultant allergic wheals.
# [2] = test system: purified rat peritoneal mast cells; test: Histamine secretion from intact mast cells incubated with peptide alone (secretagogue side effect); settings: for Secretagogue (histamine secretion following incubation of mast cell with different concentrations of each peptide): no allergen; for histamine secretion from mast cells on incubation with increasing concentrations of peptide alone: no additional allergen
# Method: Mast cells from the peritoneal cavity of C.R rats were isolated in Tyrode buffer (137 mM NaCl, 2.7 mM KC1, 1 mM MgCl2, 0.4 mM NaH2PO4, 20 mM Hepes, 1.0 mM CaCl2, 5.6 mM glucose, 1 mg/ml BSA, pH 7.2) and purified over a Ficoll gradient. A suspension of washed peritoneal cells was placed over a cushion of 30% Ficoll 400 (Pharmacia Biotech.) in buffered Saline containing 0.1% BSA; and centrifuged at 150O×g for 15 min. The purity of mast cells recovered from the bottom of the tube was >90%, as assessed by toluidine blue staining.
# Purified mast cells (duplicated of 10^5 cells/0.5 ml) were incubated in Tyrode buffer with buffer or with desired concentrations of the indicated peptide for 2 h. at. 37° C. Histamine secretion was subsequently stimulated by the indicated concentration of compound 48/80 (Sigma) dissolved in Tyrode buffer. Incubation with compound 48/80 was carried out for 20 mm.in at 37° C. The reaction was terminated by placing the tubes on ice. The cells were sedimented by centrifugation at 150×g for 5 mm.in and the supernatants were collected. The amount of histamine release was determined as previously described (Aridor et al., 1990). Briefly, cell pellets were lysed using 0.1N NaOH and the volume of each sample was adjusted to 0.5 ml by H2O. Histamine content was assayed using the o-phtalaldehyde (OPT) fluorimetric method (Shore et al., 1959). Aliquots of 0.4 ml from the supernatants and cell lysates were incubated with 1.6 ml H20, 0.4 ml 1N NaOH and 0.1 ml of 10 mg/l ml OPT in methanol, for 4 min at room temperature. The reaction was terminated by the addition of 0.2 ml 3N HCl. Samples were centrifuged at 150×g for 5 min. and 0.2 ml samples were transferred to a 96 well plate. The histamine spectrofluorometric assay was run in microplates using a microplates reader (FL-600, Biotek instruments Winooski, Vt., USA). Samples were excited by light at 340 nm and read at 440 nm. Histamine release was calculated as the percentage of total histamine content (supernatant/pellet+supernatant) in each sample. Each data point represents the average of duplicate measurements. The spontaneously released histamine was subtracted.
# [3] = test system: purified rat peritoneal mast cells; format: cell-based
# Method: 37° C. […] Each data point represents the average of duplicate measurements. The spontaneously released histamine was subtracted.
# First, the effect of compound 48/80 on exocytosis from intact mast cells was determined. […] Histamine release was determined and is presented as the net secretion that is % of the total cellular histamine following subtraction of the spontaneously released histamine. Half-maximal release was obtained at 0.1 μg/ml while maximal release was obtained at 1-10 μg/ml. Accordingly, in order to analyze the potential of each peptide to block histamine secretion, histamine secretion was induced with 5 μg/ml compound 48/80, a concentration that induces a maximal histamine release, while the cells were incubated in the presence of increasing concentrations of each peptide.
# In order to investigate the ability of these peptides to block allergen-induced exocytosis, the peptides were examined for their ability to block compound 48/80 induced histamine secretion from intact mast cells in vitro. Mast cells were incubated with different concentrations of each peptide, followed by induction of histamine secretion by compound 48/80.
# [4] = test system: abdominal skin of C.R rats; test: Rat skin test: topical application of peptide, then intradermal compound 48/80 or saline, wheal area; format: in vivo
# Method: as §1, §2, §3
# [5] = drug 24, 21, 18 hrs and 30 min before compound 48/80, Cromoglycate 2%, Dexamethazone 0.1%, Peptide 2 2%, no treatment 2.0
# [6] = drug before compound 48/80, no treatment 0.8
# [7] = drug before compound 48/80, no treatment 2.3
# [8] = drug before compound 48/80, no treatment 2.5
# [9] = drug before compound 48/80, no treatment 7.6
# [10] = intradermal peptide 1 mg/ml, 0.5 hour before, vehicle instead of compound 48/80
# [11] = intradermal peptide 1 mg/ml, 1 hour before, vehicle instead of compound 48/80
# [12] = intradermal peptide 10 mg/ml, 0.5 hour before, vehicle instead of compound 48/80
# [13] = intradermal peptide 10 mg/ml, 1 hour before, vehicle instead of compound 48/80
# [14] = drug 2% followed by vehicle, no compound 48/80
molecule,measurement,setting,value
O=C(O)c1cc(=O)c2c(OCC(O)COc3cccc4oc(C(=O)O)cc(=O)c34)cccc2o1 [Cromoglycate],"Average Score, Chemosis",mice; [5],0.5
same,"Average Score, Erythema",mice; [6],0.5
same,"Average Score, Tearing",mice; [7],1.9
same,"Average Score, Lid edema",mice; [8],1.1
same,"Average Score, Total score",mice; [9],4.0
same,"Mean wheal size, compound 48/80-induced cutaneous reaction","[1]; 0.5 hour incubation, Ceterizine 0.01 mg/ml i.d., no treatment 115.5 ± 30.4",76.2 ± 17.5 mm^2
same,"Mean wheal size, compound 48/80-induced cutaneous reaction","[1]; 1 hour incubation, no treatment 123.3 ± 33.9",91.5 ± 12.6 mm^2
C[C@@H]1C[C@H]2[C@@H]3CCC4=CC(=O)C=C[C@]4(C)[C@@]3(F)[C@@H](O)C[C@]2(C)[C@@]1(O)C(=O)CO [Dexamethazone],"Average Score, Chemosis",mice; [5],0
same,"Average Score, Erythema",mice; [6],0.6
same,"Average Score, Tearing",mice; [7],1.0
same,"Average Score, Lid edema",mice; [8],0
same,"Average Score, Total score",mice; [9],1.6
CC(C)C[C@H](NC(=O)CNC(=O)[C@@H](NC(=O)[C@H](CCC(=O)O)NC(=O)[C@H](CCCCN)NC(=O)[C@H](CC(C)C)NC(=O)[C@H](CC(N)=O)NC(=O)[C@H](CC(N)=O)NC(=O)[C@H](CCCCN)NC(=O)[C@@H]1CCCN1C(=O)[C@H](C)NC(=O)[C@H](CC(C)C)NC(=O)[C@H](CC(C)C)NC(=O)[C@H](C)NC(=O)[C@H](CC(C)C)NC(=O)[C@H](CC(C)C)NC(=O)[C@@H](NC(=O)[C@H](C)NC(=O)[C@@H]1CCCN1C(=O)[C@H](CC(C)C)NC(=O)[C@H](CC(C)C)NC(=O)[C@H](C)NC(=O)[C@@H](NC(=O)[C@H](C)NC(=O)[C@H](C)NC(=O)CCC(=O)O)C(C)C)C(C)C)C(C)C)C(=O)N[C@@H](Cc1ccc(O)cc1)C(=O)O [WALL016] (Suc-AAVALLPAVLLALLAPKNNLKEVGLY-OH; C-terminus assumed),Secretagogue (histamine secretion following incubation of mast cell with different concentrations of each peptide),"[2]; Table 9, peptide alone",−
same,histamine secretion from mast cells on incubation with increasing concentrations of peptide alone,[2],did not result in histamine secretion
same,basal level of histamine secretion compared to control cells,"[2]; peptide alone, increasing concentrations",inhibition of the basal histamine secretion
same,"IC50, compound 48/80 induced histamine secretion",[3],295 µg/mL
same,maximal inhibition of compound 48/80 induced histamine secretion,"[3]; 600 μg/ml peptide, compound 48/80 concentration not given",79.6%
same,Inhibitor (extent of inhibition of histamine secretion from mast cells),"[3]; Table 9, incubation with different concentrations of each peptide, then induction of the allergic reaction",++ (++ Moderate inhibitor (50%-70% inhibition))
same,"block of compound 48/80 induced allergic reaction in vivo, rat skin",[1]; intradermal peptide,effectively block the allergic response in vivo
same,"Mean Wheal Area ± STD, Compound 48/80","[1]; intradermal peptide 1 mg/ml, 0.5 hour before allergic induction",104.2 ± 21.6 (n = 5) mm^2
same,"Mean Wheal Area ± STD, Vehicle",[1]; [10],66.4 ± 12.5 (n = 5) mm^2
same,"Mean Wheal Area ± STD, Compound 48/80","[1]; intradermal peptide 1 mg/ml, 1 hour before allergic induction",96.3 ± 15.6 (n = 6) mm^2
same,"Mean Wheal Area ± STD, Vehicle",[1]; [11],62.8 ± 14.6 (n = 6) mm^2
same,"Mean Wheal Area ± STD, Compound 48/80","[1]; intradermal peptide 10 mg/ml, 0.5 hour before allergic induction",81.2 ± 7.9 (n = 5) mm^2
same,"Mean Wheal Area ± STD, Vehicle",[1]; [12],72.6 ± 16.2 (n = 5) mm^2
same,"Mean Wheal Area ± STD, Compound 48/80","[1]; intradermal peptide 10 mg/ml, 1 hour before allergic induction",82.1 ± 27.2 (n = 6) mm^2
same,"Mean Wheal Area ± STD, Vehicle",[1]; [13],69.3 ± 17.0 (n = 6) mm^2
same,reduction of compound 48/80 induced allergic reaction,[1]; intradermal peptide 0.5 or 1 hour before allergic induction,significant inhibition
AAVALLPAVLLALLAPKNNLKECGLY [Peptide 2],"Average Score, Erythema",mice; [14],0.6
same,"Average Score, Lid edema",mice; [14],0
same,"Average Score, Tearing",mice; [14],0.2
same,"Average Score, Total score",mice; [14],0.8
same,"Average Score, Chemosis","mice; drug 2% followed by vehicle, no compound 48/80 (Table 19 group 2)",0
same,Secretagogue (histamine secretion following incubation of mast cell with different concentrations of each peptide),"[2]; Table 1, peptide alone",−
same,stimulatory effect of topical peptide by itself on the cutaneous allergic reactions,"[4]; peptide and saline injection, without compound 48/80",no stimulatory effect
same,"Net wheal area, effect of peptide (alone)","[4]; topical 1 mg/ml, Animal A, 1 hour after application",−8.8 mm2
same,"Net wheal area, effect of peptide (alone)","[4]; topical 1 mg/ml, Animal B (footnote: 1 hour after application)",−5.5 mm2
same,"Net wheal area, effect of peptide (alone)","[4]; topical 10 mg/ml, Animal A, 1 hour after application",−8.3 mm2
same,"Net wheal area, effect of peptide (alone)","[4]; topical 10 mg/ml, Animal B (footnote: 1 hour after application)",−6.0 mm2
same,"Wheal area, saline injection (control)","[4]; topical peptide 1 mg/ml, animal a, skin test 1 hour after application",84.64^a mm^2
same,"Wheal area, saline injection (control)","[4]; topical peptide 1 mg/ml, animal b, 2 hours after application",66.91^b mm^2
same,"Wheal area, saline injection (control)","[4]; topical peptide 10 mg/ml, animal a, 1 hour after application",85.24^a mm^2
same,"Wheal area, saline injection (control)","[4]; topical peptide 10 mg/ml, animal b, 2 hours after application",66.40^b mm^2
same,"IC50, compound 48/80 induced histamine secretion",[3],400 µg/mL
same,"Mean Wheal Area ± STD, Vehicle","[1]; Tables 17A-B, column head '0.1' (no unit), 0.5 hr prior to allergy induction",57.0 ± 8.3 (n = 12) mm^2
same,"Mean Wheal Area ± STD, Vehicle","[1]; Tables 17A-B, column head '0.1' (no unit), 1 hour prior",56.2 ± 11.3 (n = 5) mm^2
same,"Mean Wheal Area ± STD, Vehicle","[1]; Tables 17A-B, column head '1' (no unit), 0.5 hr prior",61.7 ± 13.5 (n = 19) mm^2
same,"Mean Wheal Area ± STD, Vehicle","[1]; Tables 17A-B, column head '1' (no unit), 1 hour prior",50.6 ± 7.4 (n = 5) mm^2
same,"Net wheal area, effect of peptide (alone)","[1]; intradermal 1 mg/ml, Animal A, 0.5 hour",3.29 mm2
same,"Net wheal area, effect of peptide (alone)","[1]; intradermal 1 mg/ml, Animal B, 1 hour",7.0 mm2
same,"Net wheal area, effect of peptide (alone)","[1]; intradermal 1 mg/ml, Animal C, 2 hours",16.5 mm2
same,"Net wheal area, effect of peptide (alone)","[1]; intradermal 10 mg/ml, Animal A, 0.5 hour",−1.68 mm2
same,"Net wheal area, effect of peptide (alone)","[1]; intradermal 10 mg/ml, Animal B, 1 hour",−9.9 mm2
same,"Net wheal area, effect of peptide (alone)","[1]; intradermal 10 mg/ml, Animal C, 2 hours",−3.0 mm2
same,"Mean Wheal Area ± STD, Vehicle",[1]; [10],60.7 ± 19.3 (n = 7) mm^2
same,"Mean Wheal Area ± STD, Vehicle",[1]; [11],52.3 ± 11.1 (n = 5) mm^2
same,"Wheal area, saline injection (control)","[1]; intradermal peptide 1 mg/ml, animal a, 0.5 hour after injection",65.78^a mm2
same,"Wheal area, saline injection (control)","[1]; intradermal peptide 1 mg/ml, animal b, 1 hour",119.2^b mm2
same,"Wheal area, saline injection (control)","[1]; intradermal peptide 1 mg/ml, animal c, 2 hours",77.31^c mm2
same,"Mean Wheal Area ± STD, Vehicle",[1]; [12],54.8 ± 11 (n = 5) mm^2
same,"Mean Wheal Area ± STD, Vehicle",[1]; [13],50.6 ± 7.411 (n = 5) mm^2
same,"Wheal area, saline injection (control)","[1]; intradermal peptide 10 mg/ml, animal a, 0.5 hour",60.81^a mm2
same,"Wheal area, saline injection (control)","[1]; intradermal peptide 10 mg/ml, animal b, 1 hour",102.3^b mm2
same,"Wheal area, saline injection (control)","[1]; intradermal peptide 10 mg/ml, animal c, 2 hours",57.81^c mm2
same,effect of intradermal injection of peptide alone on the cutaneous allergic reactions,[1]; without compound 48/80,hardly any stimulatory effect; also recorded: no cutaneous allergic reaction
AAVALLPAVLLALLAPKNNLKEVGLY [WALL007],Secretagogue (histamine secretion following incubation of mast cell with different concentrations of each peptide),"[2]; Table 9, peptide alone",−
same,histamine secretion from mast cells on incubation with increasing concentrations of peptide alone,[2],did not result in histamine secretion
same,"IC50, compound 48/80 induced histamine secretion",[3],230 µg/mL
same,"Mean Wheal Area ± STD, Vehicle",[1]; [10],76.5 ± 14.1 (n = 12) mm^2
same,"Mean Wheal Area ± STD, Vehicle",[1]; [11],62.4 ± 11.1 (n = 15) mm^2
same,"Mean Wheal Area ± STD, Vehicle",[1]; [12],74.5 ± 26.4 (n = 12) mm^2
same,"Mean Wheal Area ± STD, Vehicle",[1]; [13],65.9 ± 10.0 (n = 11) mm^2
